The source of these data is US20120074014A1, “PRODUCT TYPICALLY BASED ON SALT OF PEROXYMONOSULFURIC ACID AND SUITABLE FOR MEDICINAL USAGE, AND ASSOCIATED PRODUCT FABRICATION” (LuTran Industries, Inc., priority 2010, published 2012).

Where two headings read alike, the source gives them in different places.

One data set has as its system osteoarthritis. The data set is described as follows: Example B: case treatment of osteoarthritis, complete-body immersion. The data set is classed as in vivo, human. To be noted: earlier treatment tried by the patient; patient report. The source says:
(§1) Given below are examples of using the medicinal drug of type I/II for treating allergic rhinitis, osteoarthritis, gouty arthritis, bronchitis, hemorrhoids, urticaria, toothache, tinea pedis, acute viral nasopharyngitis, herpes simplex, dandruff, itching, bromhidrosis, and vaginitis. The formulation of the drug of type I/II used in these examples was the preferred formulation, mentioned above, in which the drug was formed with potassium hydrogen peroxymonosulfate as the active oxygen-releasing material, sodium chloride as the inorganic halide, sodium hexametaphosphate as the alkali metal phosphate, sulfamic acid, malic acid as the non-reducing organic acid, and sodium dodecylbenzene sulfonate as the surfactant at approximately the typical mass percentages mentioned above. A formulation approximating this formulation is commercially available in the product Virkon. This formulation of the drug of type I/II is referred to below as the “Medicine”. […]

The subject of another data set is vaginitis. The data set is described as follows: Example N: case treatment of vaginitis, vaginal immersion. The class given is in vivo, human. To be noted: earlier treatment tried by the patient; patient report.
Text: as §1

Another data set deals with dandruff. The data set is described as follows: Example K: case treatment of dandruff, scalp scrubbing. The data set is classed as in vivo, human. To be noted: earlier treatment tried by the patient; (some of) these decreased the amount of dandruff; patient report. The source says:
Given below are examples of using the medicinal drug of type I/II for treating allergic rhinitis, osteoarthritis, gouty arthritis, bronchitis, hemorrhoids, urticaria, toothache, tinea pedis, acute viral nasopharyngitis, herpes simplex, dandruff, itching, bromhidrosis, and vaginitis. […] A formulation approximating this formulation is commercially available in the product Virkon. This formulation of the drug of type I/II is referred to below as the “Medicine”.
The Medicine for each person infected with allergic rhinitis, osteoarthritis, gouty arthritis, bronchitis, hemorrhoids, urticaria, toothache, tinea pedis, acute viral nasopharyngitis, herpes simplex, dandruff, itching, bromhidrosis, and vaginitis is provided for topical, intranasal, oral, or/and injection administration 1-12 times per day, preferably 1-8 times per day, more preferably 1-6 times per day, typically 1-4 times per day, in liquid form at a dosage of 0.00001-5%, preferably 0.001-3%, more preferably 0.1-2%, typically 0.5-1%, for a time of contact of 1 minute-12 hours, preferably 1 minute-6 hours, more preferably 1 minute-2 hours, typically 1-30 minutes.
The Medicine was provided to […] as a 1% solution for topical administration by scrubbing the Medicine into their scalp and hair for 5 minutes and then washing their scalp and hair. The […] reported that they administered the Medicine to themself in the foregoing manner 4 times a week for 2 weeks.

Data set [1] relates to simian vacuolating virus 40. The following applies: Sporkenbach, U.S. Pat. No. 4,404,191; cited from earlier work.
The test system of a further data set is adenovirus. The following applies: Sporkenbach, U.S. Pat. No. 4,404,191; cited from earlier work.
The test system of a further data set is coxsackie virus. The following applies: Sporkenbach, U.S. Pat. No. 4,404,191; cited from earlier work.
For another data set, the system named is poliovirus. To be noted: Sporkenbach, U.S. Pat. No. 4,404,191; cited from earlier work.
The conditions of data set [2]: cited from earlier work.

With `N[C@H]1C(O)O[C@H](CO)[C@@H](O)[C@@H]1O` (some centres unmarked) [glucosamine], the “relief of osteoarthritis by earlier treatments” value in the data set on osteoarthritis is on record as “without effective relief”.

With `C[C@]12CCC(=O)C=C1CC[C@@H]1[C@@H]2[C@@H](O)C[C@@]2(C)[C@H]1CC[C@]2(O)C(=O)CO` [hydrocortisone], the “success of earlier treatments for vaginitis” value with vaginitis is listed as “without significant success”.

Take `CC(=O)N1CCN(c2ccc(OCC3COC(Cn4ccnc4)(c4ccc(Cl)cc4Cl)O3)cc2)CC1` (centres unmarked) [ketoconazole]: the “dandruff after earlier treatments” value with dandruff is on record as “still visible”.

For `O=S(=O)([O-])OO.[K+]` [potassium hydrogen peroxymonosulfate], the “inactivation of simian vacuolating virus 40” value in data set [1] was “inactivated”. The inactivation of adenovirus entry in the data set with adenovirus is “inactivated”. In addition, the “inactivation of coxsackie virus” value in the data set on coxsackie virus was “inactivated”. Further, the inactivation of poliovirus result with poliovirus is “inactivated”.

`S=[Se]=S` [selenium sulfide]: the “dandruff after earlier treatments” value with dandruff is on record as “still visible”.

potassium monopersulfate triple salt: the “loss of active oxygen content per month” value in data set [2] (anhydrous solid, reported in Tufano) is listed as “roughly 1%”; in data set [2] (solutions (solvent presumably high-purity water), Tufano and Durante), 3-5%.

In the case of zinc pyrithione, the “dandruff after earlier treatments” value with dandruff is recorded as “still visible”.
